Measurements published in patent publication US8741934B2, “Inhibitors of ion channels” (Pfizer Limited, priority 2007, dated 2014).
Read-outs that look alike come from different tables or passages of the source.

Biological target: T1, hSCN3A sodium channels (Homo sapiens, UniProt Q9NY46)
T1 construct: expressed in transfected cells
Test: hSCN3A electrophysiology, whole-cell patch-clamp or PatchXpress 7000, estimated IC-50 (Table B)
Format: cell-based
Settings: read-out: SCN3A EIC-50
Method in brief: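 A 20 msec test pulse to 0 mV followed an 8 sec conditioning prepulse at each cell's measured V1/2. Room-temperature (22-24° C) recordings on HEK cells stably expressing the channel, conventional or PatchXpress.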

[1] = estimated IC-50, hSCN3A cells, whole-cell patch-clamp or PatchXpress 7000

T1 sequence (Q9NY46 whole entry): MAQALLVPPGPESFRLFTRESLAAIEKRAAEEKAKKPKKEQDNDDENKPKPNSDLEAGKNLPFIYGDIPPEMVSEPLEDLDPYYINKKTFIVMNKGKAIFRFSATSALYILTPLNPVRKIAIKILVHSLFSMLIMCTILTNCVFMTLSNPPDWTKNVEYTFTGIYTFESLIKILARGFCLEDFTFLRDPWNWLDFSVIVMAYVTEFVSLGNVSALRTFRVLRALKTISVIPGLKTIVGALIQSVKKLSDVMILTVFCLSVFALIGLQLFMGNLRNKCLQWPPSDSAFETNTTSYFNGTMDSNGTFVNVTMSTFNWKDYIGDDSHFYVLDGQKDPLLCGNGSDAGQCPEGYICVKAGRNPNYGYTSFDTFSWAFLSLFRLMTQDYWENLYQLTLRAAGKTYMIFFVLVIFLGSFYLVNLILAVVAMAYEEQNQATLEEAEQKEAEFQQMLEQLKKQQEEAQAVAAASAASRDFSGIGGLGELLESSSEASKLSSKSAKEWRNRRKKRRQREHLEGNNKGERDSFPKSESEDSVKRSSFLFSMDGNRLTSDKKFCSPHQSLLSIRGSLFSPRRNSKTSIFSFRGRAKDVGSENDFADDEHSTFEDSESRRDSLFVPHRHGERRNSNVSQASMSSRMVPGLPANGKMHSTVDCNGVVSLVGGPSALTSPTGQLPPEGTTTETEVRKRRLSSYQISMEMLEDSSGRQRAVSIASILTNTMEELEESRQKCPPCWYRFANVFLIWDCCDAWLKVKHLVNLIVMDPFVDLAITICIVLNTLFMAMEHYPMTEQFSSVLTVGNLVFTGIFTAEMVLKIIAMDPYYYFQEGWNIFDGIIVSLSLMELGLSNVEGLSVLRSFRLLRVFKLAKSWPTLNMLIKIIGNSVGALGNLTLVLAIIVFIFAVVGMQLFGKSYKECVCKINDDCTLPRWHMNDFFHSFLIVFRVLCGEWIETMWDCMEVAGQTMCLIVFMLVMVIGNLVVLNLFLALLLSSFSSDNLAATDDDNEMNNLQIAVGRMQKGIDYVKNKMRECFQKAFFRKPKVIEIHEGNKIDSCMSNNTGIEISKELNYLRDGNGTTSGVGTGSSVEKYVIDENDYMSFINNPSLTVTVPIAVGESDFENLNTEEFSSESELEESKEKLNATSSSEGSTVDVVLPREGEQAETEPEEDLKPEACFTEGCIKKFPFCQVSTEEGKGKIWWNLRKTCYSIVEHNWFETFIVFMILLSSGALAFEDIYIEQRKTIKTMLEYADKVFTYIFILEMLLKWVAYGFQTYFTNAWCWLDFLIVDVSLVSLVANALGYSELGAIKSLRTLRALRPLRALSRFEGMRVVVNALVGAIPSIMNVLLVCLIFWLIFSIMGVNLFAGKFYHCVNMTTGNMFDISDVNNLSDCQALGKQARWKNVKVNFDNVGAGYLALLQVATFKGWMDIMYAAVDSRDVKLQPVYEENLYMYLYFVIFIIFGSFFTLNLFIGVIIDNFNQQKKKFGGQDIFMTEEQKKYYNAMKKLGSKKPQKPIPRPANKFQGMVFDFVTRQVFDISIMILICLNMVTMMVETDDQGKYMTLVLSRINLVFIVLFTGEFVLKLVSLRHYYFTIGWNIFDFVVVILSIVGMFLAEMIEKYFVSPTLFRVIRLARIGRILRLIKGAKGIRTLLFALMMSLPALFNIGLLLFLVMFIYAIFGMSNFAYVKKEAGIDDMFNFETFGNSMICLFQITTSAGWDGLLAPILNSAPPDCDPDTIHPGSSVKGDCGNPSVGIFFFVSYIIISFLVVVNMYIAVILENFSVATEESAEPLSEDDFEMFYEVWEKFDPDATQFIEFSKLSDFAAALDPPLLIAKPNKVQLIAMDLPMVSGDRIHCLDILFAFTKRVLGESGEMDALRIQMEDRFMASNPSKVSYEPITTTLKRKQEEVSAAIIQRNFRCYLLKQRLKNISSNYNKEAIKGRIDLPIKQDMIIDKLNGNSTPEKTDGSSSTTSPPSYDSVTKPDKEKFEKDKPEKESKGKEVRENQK

O=C(c1ccc(S(=O)(=O)Nc2nccs2)cc1)N1CC[C@H](Oc2ccccc2Cl)C1 [Example 200, 4-{[(3S)-3-(2-chlorophenoxy)pyrrolidin-1-yl]carbonyl}-N-1,3-thiazol-2-yl-benzenesulfonamide]
IC50 [1]: 3600 nM

O=C(NCc1cccc(C(F)(F)F)c1)c1ccc(S(=O)(=O)Nc2nccs2)c(F)c1 [Example 302, 3-Fluoro-4-[(1,3-thiazol-2-ylamino)sulfonyl]-N-[3-(trifluoromethyl)benzyl]benzamide]
IC50 [1]: 350 nM

CC(NC(=O)c1ccc(S(=O)(=O)Nc2nccs2)cc1)c1ccc(C(F)(F)F)cc1 (stereo not drawn) [Example 118, 4-[(1,3-Thiazol-2-ylamino)sulfonyl]-N-{1-[4-(trifluoromethyl)phenyl]ethyl}benzamide]
IC50 [1]: 760 nM

COc1ccc(CNC(=O)c2ccc(S(=O)(=O)Nc3nccs3)cc2)cc1 [Example 176, N-(4-methoxybenzyl)-4-[(1,3-thiazol-2-ylamino)sulfonyl]benzamide]
IC50 [1]: 4500 nM

O=C(NCc1ccc(C(F)(F)F)cc1)c1ccc(S(=O)(=O)Nc2ncc(Cl)s2)cc1F [Example 352, 4-{[(5-Chloro-1,3-thiazol-2-yl)amino]sulfonyl}-2-fluoro-N-[4-(trifluoromethyl)benzyl]benzamide]
IC50 [1]: 200 nM

Cc1cc(NC(=O)c2ccc(S(=O)(=O)Nc3nccs3)cc2)cnc1C [Example 175, N-(5,6-dimethylpyridin-3-yl)-4-[(1,3-thiazol-2-ylamino)sulfonyl]benzamide]
IC50 [1]: 4050 nM

O=C(c1ccc(S(=O)(=O)Nc2nccs2)cc1)N1CCOC[C@H]1c1ccccc1 [Example 48, 4-{[(3R)-3-phenylmorpholin-4-yl]carbonyl}-N-1,3-thiazol-2-ylbenzenesulfonamide]
IC50 [1]: > 1000 nM

COc1cccc(C2CCCN(C(=O)c3ccc(S(=O)(=O)Nc4nccs4)cc3)C2)c1 (stereo not drawn) [Example 217, 4-{[3-(3-Methoxyphenyl)piperidin-1-yl]carbonyl}-N-1,3-thiazol-2-yl-benzenesulfonamide]
IC50 [1]: 2910 nM

N#Cc1cc(CNC(=O)c2ccc(S(=O)(=O)Nc3nccs3)cc2)ccc1F [Example 55, N-(3-cyano-4-fluorobenzyl)-4-[(1,3-thiazol-2-ylamino)sulfonyl]benzamide]
IC50 [1]: 1410 nM

O=C(NCc1ccc(Cl)c(Cl)c1)c1ccc(S(=O)(=O)Nc2ncc(Cl)s2)c(F)c1 [Example 311, 4-{[(5-Chloro-1,3-thiazol-2-yl)amino]sulfonyl}-N-(3,4-dichlorobenzyl)-3-fluorobenzamide]
IC50 [1]: 60 nM

O=C(NCc1ccc(-c2ccccc2)cc1)c1ccc(S(=O)(=O)Nc2nccs2)cc1 [Example 399, N-(biphenyl-4-ylmethyl)-4-[(1,3-thiazol-2-ylamino)sulfonyl] benzamide]
IC50 [1]: 30 nM

Cn1ccc(NS(=O)(=O)c2ccc(C(=O)NCc3ccc(C(F)(F)F)cc3)cc2)n1 [Example 2, 4-{[(1-Methyl-1H-pyrazol-3-yl)amino]sulfonyl}-N-[4-(trifluoromethyl)benzyl]benzamide]
IC50 [1]: > 1000 nM

CC(CNC(=O)c1ccc(S(=O)(=O)Nc2nccs2)cc1)c1ccc(Cl)cc1 (stereo not drawn) [Example 133, N-[2-(4-chlorophenyl)propyl]-4-[(1,3-thiazol-2-ylamino)sulfonyl]benzamide]
IC50 [1]: 1150 nM

O=C(NCc1ccc(Cl)c(Cl)c1)c1ccc(S(=O)(=O)Nc2ncc(Cl)s2)c(Cl)c1 [Example 368, 3-Chloro-4-{[(5-chloro-1,3-thiazol-2-yl)amino]sulfonyl}-N-(3,4-dichlorobenzyl) benzamide]
IC50 [1]: 400 nM

O=C(NCc1ccc(C(F)(F)F)c(F)c1)c1ccc(S(=O)(=O)Nc2ncc(Cl)s2)c(F)c1 [Example 310, 4-{[(5-Chloro-1,3-thiazol-2-yl)amino]sulfonyl}-3-fluoro-N-[3-fluoro-4-(trifluoromethyl)benzyl]benzamide]
IC50 [1]: 50 nM

O=C(NCc1ccc(OC(F)(F)F)c(F)c1)c1ccc(S(=O)(=O)Nc2nccs2)cc1F [Example 328, 2-Fluoro-N-[3-fluoro-4-(trifluoromethoxy)benzyl]-4-[(1,3-thiazol-2-ylamino)sulfonyl] benzamide]
IC50 [1]: 120 nM

O=C(NCCc1ccccc1Cl)c1ccc(S(=O)(=O)Nc2nccs2)cc1 [Example 96, N-[2-(2-chlorophenyl)ethyl]-4-[(1,3-thiazol-2-ylamino)sulfonyl]benzamide]
IC50 [1]: 910 nM

O=C(NCc1ccccc1C(F)(F)F)c1ccc(S(=O)(=O)Nc2nccs2)cc1 [Example 88, 4-[(1,3-Thiazol-2-ylamino)sulfonyl]-N-[2-(trifluoromethyl)benzyl]benzamide]
IC50 [1]: > 100 nM

O=C(NCC1(c2ccc(Cl)cc2)CC1)c1ccc(S(=O)(=O)Nc2ncns2)c(F)c1 [Example 382, N-{[1-(4-chlorophenyl)cyclopropyl]methyl}-3-fluoro-4-[(1,2,4-thiadiazol-5-ylamino)sulfonyl]benzamide]
IC50 [1]: 140 nM

O=C(NC1(c2ccc(Cl)cc2)CC1)c1ccc(S(=O)(=O)Nc2nccs2)cc1 [Example 139, N-[1-(4-chlorophenyl)cyclopropyl]-4-[(1,3-thiazol-2-ylamino)sulfonyl]benzamide]
IC50 [1]: 1660 nM

O=C(NCc1cccc(OC(F)(F)F)c1)c1ccc(S(=O)(=O)Nc2nccs2)cc1 [Example 73, 4-[(1,3-Thiazol-2-ylamino)sulfonyl]-N-[3-(trifluoromethoxy)benzyl]benzamide]
IC50 [1]: 180 nM

Cn1cnc(NS(=O)(=O)c2ccc(C(=O)NCc3ccc(C(F)(F)F)cc3)cc2)n1 [Example 9, 4-{[(1-Methyl-1H-1,2,4-triazol-3-yl)amino]sulfonyl}-N-[4-(trifluoromethyl)benzyl]benzamide]
IC50 [1]: > 10000 nM

COc1cccc(CNC(=O)c2ccc(S(=O)(=O)Nc3nccs3)cc2)c1 [Example 170, N-(3-methoxybenzyl)-4-[(1,3-thiazol-2-ylamino)sulfonyl]benzamide]
IC50 [1]: 3920 nM

O=C(NCc1ccc(OC(F)(F)F)cc1)c1ccc(S(=O)(=O)Nc2ncc(Cl)s2)cc1F [Example 360, 4-{[(5-Chloro-1,3-thiazol-2-yl)amino]sulfonyl}-2-fluoro-N-[4-(trifluoromethoxy)benzyl]benzamide]
IC50 [1]: 160 nM

O=C(NCc1ccc(C(F)(F)F)cc1F)c1ccc(S(=O)(=O)Nc2nccs2)cc1 [Example 397, N-[2-fluoro-4-(trifluoromethyl)benzyl]-4-[(1,3-thiazol-2-ylamino)sulfonyl] benzamide]
IC50 [1]: 220 nM

O=C(NCCc1cccc(C(F)(F)F)c1)c1ccc(S(=O)(=O)Nc2nccs2)cc1 [Example 74, 4-[(1,3-Thiazol-2-ylamino)sulfonyl]-N-{2-[3-(trifluoromethyl)phenyl]ethyl}benzamide]
IC50 [1]: 540 nM

O=C(NCc1ccc(Cl)c(F)c1)c1ccc(S(=O)(=O)Nc2ncc(Cl)s2)cc1F [Example 355, N-(4-chloro-3-fluorobenzyl)-4-{[(5-chloro-1,3-thiazol-2-yl)amino]sulfonyl}-2-fluorobenzamide]
IC50 [1]: 150 nM

O=C(NCc1ccc(C(F)(F)F)c(Cl)c1)c1ccc(S(=O)(=O)Nc2ncc(Cl)s2)cn1 [Example 346, 5-{[(5-Chloro-1,3-thiazol-2-yl)amino]sulfonyl}-N-[3-chloro-4-(trifluoromethyl)benzyl] pyridine-2-carboxamide]
IC50: 70 nM

O=C(NCc1ccc(C(F)(F)F)c(Cl)c1)c1ccc(S(=O)(=O)Nc2nccs2)c(F)c1 [Example 306, N-[3-chloro-4-(trifluoromethyl)benzyl]-3-fluoro-4-[(1,3-thiazol-2-ylamino)sulfonyl]benzamide]
IC50 [1]: 40 nM

O=C(NCc1ccc(C(F)(F)F)cc1)c1ccc(S(=O)(=O)Nc2ncc(Cl)s2)cc1 [Example 1, 4-{[(5-Chloro-1,3-thiazol-2-yl)amino]sulfonyl}-N-[4-(trifluoromethyl)benzyl]benzamide]
IC50 [1]: 70 nM

O=C(NCCc1ccc(C(F)(F)F)cc1)c1ccc(S(=O)(=O)Nc2nccs2)cc1 [Example 101, 4-[(1,3-Thiazol-2-ylamino)sulfonyl]-N-{2-[4-(trifluoromethyl)phenyl]ethyl}benzamide]
IC50 [1]: 570 nM

O=C(NCc1ccc(C(F)(F)F)c(F)c1)c1ccc(S(=O)(=O)Nc2ncc(Cl)s2)cc1Cl [Example 339, 2-Chloro-4-{[(5-chloro-1,3-thiazol-2-yl)amino]sulfonyl}-N-[3-fluoro-4-(trifluoromethyl)benzyl]benzamide]
IC50 [1]: 590 nM

O=C(NCc1ccc(F)cc1)c1ccc(S(=O)(=O)Nc2nccs2)cc1 [Example 92, N-(4-fluorobenzyl)-4-[(1,3-thiazol-2-ylamino)sulfonyl]benzamide]
IC50 [1]: 580 nM

O=C(NCc1ccc(F)c(F)c1)c1ccc(S(=O)(=O)Nc2nccs2)c(F)c1 [Example 298, N-(3,4-difluorobenzyl)-3-fluoro-4-[(1,3-thiazol-2-ylamino)sulfonyl]benzamide]
IC50 [1]: 160 nM

O=C(NCc1ccc(OC(F)(F)F)cc1)c1ccc(S(=O)(=O)Nc2ncc(Cl)s2)c(F)c1 [Example 314, 4-{[(5-Chloro-1,3-thiazol-2-yl)amino]sulfonyl}-3-fluoro-N-[4-(trifluoromethoxy)benzyl]benzamide]
IC50 [1]: 70 nM

O=C(NCc1ccc(C(F)(F)F)cc1)c1ccc(S(=O)(=O)Nc2nc[nH]n2)cc1 [Example 390, 4-[(1H-1,2,4-triazol-3-ylamino)sulfonyl]-N-[4-(trifluoromethyl)benzyl]benzamide]
IC50 [1]: 9950 nM

O=C(NCc1ccc(F)c(C2CC2)c1)c1ccc(S(=O)(=O)Nc2nccs2)cc1 [Example 54, N-(3-cyclopropyl-4-fluorobenzyl)-4-[(1,3-thiazol-2-ylamino)sulfonyl]benzamide]
IC50 [1]: 120 nM

O=C(NCc1cc(F)cc(F)c1F)c1ccc(S(=O)(=O)Nc2nccs2)cc1 [Example 65, 4-[(1,3-Thiazol-2-ylamino)sulfonyl]-N-(2,3,5-trifluorobenzyl)benzamide]
IC50 [1]: 3840 nM

Cc1ccc(CNC(=O)c2ccc(S(=O)(=O)Nc3nccs3)cc2)cc1F [Example 62, N-(3-fluoro-4-methylbenzyl)-4-[(1,3-thiazol-2-ylamino)sulfonyl]benzamide]
IC50 [1]: 1020 nM
